Where “and” joins values, the source holds several entries; their conditions need not be identical. Equal entries are not always repeated.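 These data come from cells grown in 96-well plates and exposed to compound for 48 hours at five concentrations. Abbreviation: GI50, concentration required for 50% inhibition of growth. TGI denotes the concentration required for complete inhibition of growth.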 Where a SMILES comes first, the peptide text is derived from it. [ ]: non-standard residue; d: D form. The star is where a group is joined. ξ: configuration not given here. X3 = COc1ccc(C(N*)c2ccc(OC)cc2)cc1; NMeF = CN[C@@H](Cc1ccccc1)C(=O)O; NMeD = CN[C@@H](CC(=O)O)C(=O)O; NMeV = CN[C@H](C(=O)O)C(C)C; ξNMeV = CNC(C(=O)O)C(C)C; Boc = CC(C)(C)OC(=O)*; ξNMeA = CNC(C)C(=O)O; ξV = CC(C)C(N)C(=O)O
Legend:
Assay in all cases: inhibition of tumour cell growth, NCI panel, 48 h
MDA-N = system: MDA-N
T-47D breast = system: T-47D breast
DMS 273 small cell lung = system: DMS 273 small cell lung
M19-MEL melanoma = system: M19-MEL melanoma
SNB-78 CNS = system: SNB-78 CNS
LXFL 529 NSCLC = system: LXFL 529 NSCLC
DMS 114 small cell lung = system: DMS 114 small cell lung
HOP-18 NSCLC = system: HOP-18 NSCLC

| SMILES | TGI (MDA-N) [µM] | TGI (T-47D breast) | GI50 (T-47D breast) | TGI (DMS 273 small cell lung) [µM] | TGI (M19-MEL melanoma) [µM] | TGI (SNB-78 CNS) [µM] | TGI (LXFL 529 NSCLC) [µM] | TGI (DMS 114 small cell lung) [µM] | TGI (HOP-18 NSCLC) [µM] |
| --- | --- | --- | --- | --- | --- | --- | --- | --- | --- |
| CC(=O)CC(OC(C)=O)C1=CCC2C(CC1C)OC(=O)C2C (stereo not drawn) | > 100 | > 100 µM | – | – | – | – | – | – | – |
| O=C(/C(=C/c1ccc([N+](=O)[O-])cc1)SCc1ccccc1)c1ccc(Cl)cc1 | – | 7.46 µM | 2.41 µM | – | – | – | – | – | – |
| CCOC(=O)C1=C(C(=O)OCC)C2c3ccccc3C=CN2C(C(=O)OCC)=C(SC)S1 (stereo not drawn) | – | – | – | > 100 | > 100 | > 100 | > 100 | > 100 | – |
| CCCCCCCCCCCCCCCC[N+](C)(C)Cc1ccccc1 | – | 5.62 µM and 6.1 µM | 1.31 µM and 1.48 µM | – | – | – | – | – | – |
| CCCCCC[C@@H]1CCC2C(CO)[C@@H](O)CC[C@@H]2C1 (stereo partly drawn) | – | – | – | 39.4 | 35.3 | 41.3 | 32.6 | 37.5 | 43 |
| C[C@]12CCC3c4ccc(O)cc4CCC3C1CC[C@@]2(O)CNC(=O)/C=C/c1ccc(O)c(O)c1 (stereo partly drawn) | – | 23.9 µM | 6.61 µM | – | – | – | – | – | – |
| COc1ccc(C(NC(=O)C[C@@H](C(=O)N(C)C(C)C(=O)O)N(C)C(=O)[C@@H]2CCCN2C(=O)[C@H](C(C)C)N(C)C(=O)C(C(C)C)N(C)C(=O)[C@H](Cc2ccccc2)N(C)C(=O)C(NC(=O)OC(C)(C)C)C(C)C)c2ccc(OC)cc2)cc1 (stereo partly drawn) (Boc-[ξV][NMeF][ξNMeV][NMeV]P[NMeD](X3)[ξNMeA]-OH) | 32.7 | 36.7 µM | – | 30.9 | 34.4 | 36.5 | 27.9 | 33.4 | – |
| O=C(O)c1ccc2c(c1C(=O)O)C(=O)OC2(c1ccc(O)cc1)c1ccc(O)cc1 | > 100 | > 100 µM | – | – | – | – | – | – | – |
| CCN(Cc1ccc(F)cc1)c1cc(Cl)c(CO)c(Cl)c1 | – | 26.5 µM | 7.47 µM | – | – | – | – | – | – |
| NC(=O)c1ccccc1NC(=O)C(=O)C(C(=O)c1ccc(Cl)c(Cl)c1)C1OC(=O)c2ccccc21 (stereo not drawn) | – | – | – | > 100 | – | > 100 | > 100 | – | > 100 |
| COc1ccc(/C=N/NC(=O)c2cccc3cc[nH]c23)cc1O | – | > 100 µM | 5.74 µM | – | – | – | – | – | – |
| N#Cc1c[nH]n2c(N=Nc3ccc(Cl)cc3)c(O)nc12 | – | 56 µM | 10.1 µM | – | – | – | – | – | – |
| CN(C)c1cc(NN=C(c2ccc(O)cc2)c2ccc(O)cc2)c([N+](=O)[O-])cc1[N+](=O)[O-] | – | 17.2 µM | 3.34 µM | – | – | – | – | – | – |
| CC1(COc2ccc3c(c2)ncn3-c2ccc3cccc(N4CCC(N)CC4)c3n2)COC1 | – | 30.5 µM and > 10 µM | 15.9 µM and > 10 µM | – | – | – | – | – | – |
| O=S(=O)(c1ccccc1)N1CCN(S(=O)(=O)c2ccccc2)c2ccccc21 | > 100 | > 100 µM | – | – | – | – | – | – | – |
| O=C(/C=C/c1ccc(O)cc1)c1ccc(O)cc1 | > 88.4 | > 100 µM | – | 36.9 | 42.2 | > 100 | – | 43.8 | > 100 |
| S=c1sc2c(n1-c1ccccc1)NC=NC2S (stereo not drawn) | – | – | – | > 100 | > 100 | > 100 | > 100 | > 100 | 92.1 |
| CCOC(=O)C1=C(C)N(c2ccc(F)cc2F)[C@]2(C#N)C(O)=C(Cl)C(Cl)=C(O)[C@]12C#N | – | > 100 µM | > 100 µM | – | – | – | – | – | – |
| Cc1csc(-c2nnc(Nc3ccc(Oc4ncccc4-c4ccnc(N)n4)cc3)c3ccccc23)c1 | – | > 100 µM | 5 µM | – | – | – | – | – | – |
| Cc1ccc(/C=C/C(=O)CCN(C)C)cc1 | – | – | – | 25.6 | 38.7 | 87 | 34.2 | 32.5 | 38.4 |
| COc1cc(C2CC(C)(O)Oc3cc4c(cc32)OCO4)cc(OC)c1OC (stereo not drawn) | 0.43 | > 100 µM | – | – | – | – | – | – | – |
| CCCCCCCCCCn1cc[n+](C)c1 | – | > 21.7 µM | 1.61 µM | – | – | – | – | – | – |
| Cc1ccc(Oc2ccc(C)cc2N)cc1 | – | – | – | > 100 | > 100 | > 100 | > 100 | > 100 | > 100 |
| O=C(CCCSc1nc(-c2ccccc2)cc(-c2ccccc2)n1)NO | – | 22 µM | 1.76 µM | – | – | – | – | – | – |
| Cc1cc2c(C)[nH]nc2c(C(=O)O)c1C | – | – | – | > 100 | > 100 | > 100 | > 100 | > 100 | – |
| COCCOc1ccc(-c2nc3ccc(-c4nc5ccc(N6CCN(C)CC6)cc5[nH]4)cc3[nH]2)cc1 | – | 9.09 µM | 1 µM | – | – | – | – | – | – |
| Nc1n[nH]c2cccc(C#Cc3cccc(C(=O)Nc4ccc(CN5CCOCC5)c(C(F)(F)F)c4)c3)c12 | – | 5.76 µM | 1.18 µM | – | – | – | – | – | – |
